pIC50: −log10 of the molar value. Like-named read-outs stand apart in the source and are kept apart here.
Columns and labels:
BRD4-BD12 (1-477) = BRD4-BD12 (1-477) (Homo sapiens (Human), UniProt O60885); test: Alphascreen binding assay BRD4-BD12; conditions: BRD4(1 2) H4; read-out: Biochemical activity (IC50 μM) BRD4(1 2) H4
In short: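 First, compound was preincubated 1 h at room temperature with the His-tagged BRD4 protein (BD1 44-164 or tandem BD12 1-477) and acetylated H4 peptide. Next, donor and acceptor beads were added at 7.5 μg/ml final. After 30 min, AlphaScreen emission was recorded.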

MV-4-11 cells = test: Oncology cell growth assay MV-4-11 (CellTiter Glo); assay type: cell-based; conditions: Homo sapiens, MV4-11, 72 h, read-out: Cell activity (IC50 μM) MV-4-11 3d-Growth
In short: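 MV-4-11 AML cells (MLL-AF4), 3000 per well, exposed to 8-point 1:3 compound titration from 10 μM top concentration (0.2% DMSO) for 72 h. Viability by CellTiter Glo luminescence, normalized to DMSO controls; pIC50 from four-parameter curve fit.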

bromodomain = test: at least one of the bromodomain cell assays of Example 57; assay type: cell-based; conditions: at least one of the bromodomain cell assays described in Example 57; read-out: IC50 in at least one of the bromodomain cell assays

In the case of `Cc1noc(C)c1-c1cnc2c(-c3ccc(C(N)=O)cc3)cn(CC3(F)CCCCC3)c2c1` [P-0466, 4-[6-(3,5-dimethylisoxazol-4-yl)-1-[(1-fluorocyclohexyl)methyl]pyrrolo[3,2-b]pyridin-3-yl]benzamide], the IC50 (BRD4-BD12 (1-477)) was less than 1 µM, the IC50 (MV-4-11 cells; MV-4-11, 3d growth) was less than 1 µM and the pIC50 (bromodomain) was greater than 5.00.
`Cc1noc(C)c1-c1cnc2c(-c3ccc(C(=O)O)c(Cl)c3)cn(CC3CCC(F)(F)CC3)c2c1` [P-0535, 2-chloro-4-[1-[(4,4-difluorocyclohexyl)methyl]-6-(3,5-dimethylisoxazol-4-yl)pyrrolo[3,2-b]pyridin-3-yl]benzoic acid] gave an IC50 (BRD4-BD12 (1-477)) of less than 1 µM, an IC50 (MV-4-11 cells; MV-4-11, 3d growth) of less than 1 µM and a pIC50 (bromodomain) greater than 5.00.
`Cc1cc(-c2cnc3c(-c4cnn(CC(F)(F)F)c4)cn(CC4CCC(F)(F)CC4)c3c2)cn(C)c1=O` [P-0541, 5-[1-[(4,4-difluorocyclohexyl)methyl]-3-[1-(2,2,2-trifluoroethyl)pyrazol-4-yl]pyrrolo[3,2-b]pyridin-6-yl]-1,3-dimethyl-pyridin-2-one] gave an IC50 (BRD4-BD12 (1-477)) of less than 1 µM, an IC50 (MV-4-11 cells; MV-4-11, 3d growth) of less than 1 µM and a pIC50 (bromodomain) greater than 5.00.
`Cc1noc(C)c1-c1cnc2c(-c3ccc(CO)cc3)cn(CC3CCC(F)(F)CC3)c2c1` [P-0601, [4-[1-[(4,4-difluorocyclohexyl)methyl]-6-(3,5-dimethylisoxazol-4-yl)pyrrolo[3,2-b]pyridin-3-yl]phenyl]methanol] showed an IC50 (BRD4-BD12 (1-477)) of less than 1 µM, an IC50 (MV-4-11 cells; MV-4-11, 3d growth) of less than 1 µM and a pIC50 (bromodomain) greater than 5.00.
`Cc1noc(C)c1-c1cnc2c(-c3cnn(C)c3C)cn(CC3CCC(F)(F)CC3)c2c1` [P-0394, 4-[1-[(4,4-difluorocyclohexyl)methyl]-3-(1,5-dimethylpyrazol-4-yl)pyrrolo[3,2-b]pyridin-6-yl]-3,5-dimethyl-isoxazole] gave an IC50 (BRD4-BD12 (1-477)) of less than 1 µM, an IC50 (MV-4-11 cells) of less than 1 µM and a pIC50 (bromodomain) greater than 5.00.
`CC[C@@H](c1ccccc1)n1cc(-c2ccc(C(=O)O)cc2)c2ncc(-c3c(C)noc3C)cc21` [P-0567, 4-[6-(3,5-dimethylisoxazol-4-yl)-1-[(1S)-1-phenylpropyl]pyrrolo[3,2-b]pyridin-3-yl]benzoic acid] gave an IC50 (BRD4-BD12 (1-477)) of less than 1 µM, an IC50 (MV-4-11 cells; MV-4-11, 3d growth) of less than 1 µM and a pIC50 (bromodomain) greater than 5.00.
With `Cn1cc(-c2cn(CC3CCC(F)(F)CC3)c3cc(-c4ccc(O)nc4)cnc23)cn1` [P-0437, 5-[1-[(4,4-difluorocyclohexyl)methyl]-3-(1-methylpyrazol-4-yl)pyrrolo[3,2-b]pyridin-6-yl]pyridin-2-ol] the IC50 (BRD4-BD12 (1-477)) was less than 1 µM, the IC50 (MV-4-11 cells; MV-4-11, 3d growth) was less than 1 µM and the pIC50 (bromodomain) was greater than 5.00.
Compound `Cc1nnn(C)c1-c1cnc2c(-c3cnn(C(F)F)c3)cn(CC3(F)CCC(F)(F)CC3)c2c1` [P-0419, 3-[1-(difluoromethyl)pyrazol-4-yl]-6-(3,5-dimethyltriazol-4-yl)-1-[(1,4,4-trifluorocyclohexyl)methyl]pyrrolo[3,2-b]pyridine] has an IC50 (BRD4-BD12 (1-477)) of less than 1 µM, an IC50 (MV-4-11 cells) of less than 1 µM and a pIC50 (bromodomain) greater than 5.00.
Compound `Cc1noc(C)c1-c1cnc2c(-c3cc(C(=O)O)cs3)cn(CC3CCC(F)(F)CC3)c2c1` [P-0486, 5-[1-[(4,4-difluorocyclohexyl)methyl]-6-(3,5-dimethylisoxazol-4-yl)pyrrolo[3,2-b]pyridin-3-yl]thiophene-3-carboxylic acid] has an IC50 (BRD4-BD12 (1-477)) of less than 1 µM, an IC50 (MV-4-11 cells; MV-4-11, 3d growth) of less than 1 µM and a pIC50 (bromodomain) greater than 5.00.
For `Cc1noc(C)c1-c1cnc2c(c1)c(Cc1ccccc1Cl)cn2-c1ccc(C(=O)O)cn1` [P-0428, 6-[3-[(2-chlorophenyl)methyl]-5-(3,5-dimethylisoxazol-4-yl)pyrrolo[2,3-b]pyridin-1-yl]pyridine-3-carboxylic acid], the IC50 (BRD4-BD12 (1-477)) was less than 1 µM, the IC50 (MV-4-11 cells; MV-4-11, 3d growth) was 1 to 10 µM and the pIC50 (bromodomain) was greater than 5.00.
Work on `Cc1noc(C)c1-c1cnc2c(-c3ccc(C(C)(C)C)cc3)cn(CC3CCC(F)(F)CC3)c2c1` [P-0802, 4-[3-(4-tert-butylphenyl)-1-[(4,4-difluorocyclohexyl)methyl]pyrrolo[3,2-b]pyridin-6-yl]-3,5-dimethyl-isoxazole] yielded an IC50 (BRD4-BD12 (1-477)) of less than 1 µM, an IC50 (MV-4-11 cells; MV-4-11, 3d growth) of 1 to 10 µM and a pIC50 (bromodomain) greater than 5.00.

Source: patent US10519177B2, “Heterocyclic compounds and uses thereof” (Plexxikon Inc., priority 2013, dated 2019)
